Earlier results in patent publication US7834031B2, “Radiolabeled glycine transporter inhibitors” (Merck Sharp & Dohme Corp., priority 2005, dated 2010).

Tests used:
[1] = test system: symptoms of schizophrenia; settings: schizophrenia patients poorly responsive to antipsychotic drugs
NMDA receptor activity = settings: rat
pre-pulse inhibition = settings: mice; measure of sensory gating
[2] = test system: symptoms of schizophrenia; settings: high doses, oral, add-on to standard neuroleptic therapy

## CNCC(=O)O [sarcosine]
[1]
  effect on positive, negative and cognitive symptoms: beneficial effect

## CN(CCC(Oc1ccc(-c2ccccc2)cc1)c1ccc(F)cc1)CC(=O)O (stereo not shown) [NFPS, (N-[3-(4′-fluorophenyl)-3-(4′-phenylphenoxy)propyl])sarcosine]
NMDA receptor activity
  NMDA receptor activity and NMDA receptor-dependent long-term potentiation: potentiates NMDA receptor activity and NMDA receptor-dependent long-term potentiation
pre-pulse inhibition
  pre-pulse inhibition: enhance pre-pulse inhibition

## NCC(=O)O [glycine]
[2]
  symptoms of schizophrenia patients: improvement of the symptoms
